These results are taken from PMC9743090, “Induction of Ferroptosis in Glioblastoma and Ovarian Cancers by a New Pyrrole Tubulin Assembly Inhibitor” (Journal of Medicinal Chemistry, 2022).

Each structure is given as a SMILES string. Entries after “also recorded” stand apart in the source; their conditions may differ.

The subject of data set [1] is human primary T lymphocytes. In words: Toxicity on human primary T lymphocytes (annexin V / propidium iodide flow cytometry). Format: cell-based. Conditions: 48 or 72 h. As for the experimental part:
Cell lines were obtained from the American Type Culture Collection (ATCC), Rockville, MD. U87 MG cells were cultured in minimum essential medium (MEM) supplemented with 10% fetal bovine serum, 1% penicillin/streptomycin, 1% glutamine, 1% sodium pyruvate, and 1% nonessential amino acids. OVCAR-3 cells were cultured in Dulbecco’s modified eagle medium (DMEM) purchased from Sigma Aldrich (cat. no. D6546) supplemented with 20% fetal bovine serum,1% penicillin/streptomycin, 1% glutamine, 1% sodium pyruvate, 1% Hepes, and 0.01 μg/mL insulin (Sigma Aldrich, cat. no. 19278). […] Healthy donors’ peripheral blood mononuclear cells (PBMCs) were isolated by Lymphoprep (Nycomed) gradient centrifugation. T lymphocytes were negatively selected from PBMCs using a magnetic Dynabeads Untouched Human T Cells Kit (Thermo Fisher Scientific) following the manufacturer’s instructions.
Apoptotic cell death was evaluated using the APC Annexin-V Apoptosis Detection Kit with PI (Thermo Fisher Scientific). Briefly, 1.5 × 10^6/mL cells were cultured in 48-well plates, untreated or treated with different concentrations of 15 for 48 or 72 h. Cells were then stained using annexin-V/APC and propidium iodide according to the manufacturer’s instructions. Cell populations were acquired using a FACS Canto II flow cytometer (BD Biosciences). […]

The test system of a further data set is U-87 MG. In words: In vivo U-87 MG xenograft, tumor size and tumor tissue analysis. Further details: species or system BALB/C^nu/nu mice. As for the experimental part:
Briefly, all 10 week-old female BALB/C^nu/nu mice (24 mice) were purchased from the Shanghai University of Traditional Chinese Medicine with Institutional Animal Care and Use Committee approval in accordance with institutional guidelines. All mice were randomly divided into four groups. In #1 group (4 mice), 1 × 10^8 cells/mL from U-87 MG at the logarithmic growth phase were harvested and inoculated subcutaneously, followed by intraperitoneal injection of 100 μL of 15 (25 mg/kg) every 2 days. In #2 group (4 mice), 1 × 10^8 cells/mL from U-87 MG at the logarithmic growth phase were harvested and inoculated subcutaneously, followed by intraperitoneal injection of 100 μL of saline every 2 days. In #3 group (4 mice), 1 × 10^8 cells/mL from SKOV-3 at the logarithmic growth phase were harvested and inoculated subcutaneously, followed by intraperitoneal injection of 100 μL 15 (25 mg/kg) every 2 days. In #4 group (4 mice), 1 × 10^8 cells/mL from SKOV-3 at the logarithmic growth phase were harvested and inoculated subcutaneously, followed by intraperitoneal injection of 100 μL of saline every 2 days. After continuous feeding for 40 days, the mice were sacrificed, and the tumors were removed. The tumors were weighed, and the volumes were calculated using the following formula: Tumor volume (cm^3) = (ab^2)/2 (a: the longest axis (cm), b: the shortest axis (cm)).
Briefly, fresh tissues were immersed in 4% paraformaldehyde (Sigma-Aldrich) for fixation at room temperature for 30 min. The tissues were then dehydrated in an ethanol gradient, embedded in paraffin, sectioned (thickness: 6 μm), and immersed in xylene for dewaxing. Tissue sections were blocked with immunohistochemical blocking solution (Beyotime Biotechnology Co., Ltd., Zhejiang, China) at 37 °C for 30 min. The blocking solution was then discarded, and the sections were washed three times at room temperature for 5 min, each with immunohistochemical washing solution (Beyotime Biotechnology). Then, primary antibodies (rabbit anti-GPX4 antibody [EPNCIR144] (ab125066), rabbit anti-ferritin heavy chain antibody [EPR18878] (ab183781), and rabbit anti-Ki67 antibody (ab15580), Abcam, MA, USA) were added and incubated at 37 °C for 45 min. After incubation, the antibody solution was discarded, and the sections were washed three times at room temperature for 5 min each with immunohistochemical washing solution (Beyotime Biotechnology). Then, the secondary antibody (goat anti-rabbit IgG H&L (Alexa Fluor 488), Abcam, MA, USA) was added, and the tissues were incubated at 37 °C for 45 min. After incubation, the antibody solution was discarded, and the sections were washed three times at room temperature for 5 min, each with immunohistochemical washing solution (Beyotime Biotechnology). Finally, immunofluorescence blocking solution (Sigma-Aldrich) was added, and the sections were mounted.
According to the instructions of the RNAprep pure Tissue Kit (TIANGEN Biotech (Beijing) China) Co., Ltd., Beijing, China), to about 20 mg of […] tissue specimen was added 800 μL of lysis solution, and the mixture was ground, homogenized, and centrifuged. To the supernatant, 200 μL of chloroform was added, and the mixture was mixed by inverting and centrifuged at 4 °C at 13,400 × g for 15 min. To the supernatant, two volumes of absolute ethanol were added, mixed by inversion, and centrifuged at 4 °C at 13,400 × g for 30 min. Ethanol precipitation and centrifugation of the supernatant were repeated. The RNA pellet was suspended with 500 μL of 75% ethanol and centrifuged at 13,400 × g at 4 °C for 5 min. The supernatant was discarded, the excess liquid was removed, and the pellet was dissolved in 300 μL of DECP water. One microliter of the RNA solution was used to measure the ratio of A260–A280 (generally 1.8–2.0) to determine the purity and approximate concentration of the RNA. […]

`COc1cc(C(=O)c2cn(-c3ncccn3)cc2-c2ccco2)cc(OC)c1OC` [Compound 15, (4-(Furan-2-yl)-1-(pyrimidyl-2-yl)-1H-pyrrol-3-yl)(3,4,5-trimethoxyphenyl)methanone]: in data set [1] (0.1 μM), the “cell viability / toxicity” value is “did not change cell viability; also recorded: not toxic”. The “cell viability / toxicity” value in data set [1] (1.0 or 2.5 μM) was “some cytotoxicity was observed”. Besides, in the data set with U-87 MG (25 mg/kg i.p. every 2 days), the “ATP level in tumor tissue vs control” value was “significantly lower”, the “Fe2+ concentration in tumor tissue vs control” value is “significantly higher”, the “LPO level in tumor tissue vs control” value is “appreciably higher” and the “MDA level in tumor tissue vs control” value is “appreciably higher”. Besides, in the data set on U-87 MG (25 mg/kg i.p. every 2 days), the “T-GSH level in tumor tissue vs control” value is listed as “significantly lower” and the “lactic acid level in tumor tissue vs control” value is “appreciably higher”. Besides, the “tumor size (volume and weight) vs saline control” value in the data set with U-87 MG (25 mg/kg i.p. every 2 days, day 40) was “significantly smaller”. In the data set with U-87 MG (immunofluorescence staining), the “CD31 expression in tumor tissue vs control” value is on record as “significantly lower expression”, the “FTH1 expression in tumor tissue vs control” value is reported as “significantly lower expression”, the “GPX4 expression in tumor tissue vs control” value is given as “significantly lower expression” and the “Ki67 expression in tumor tissue vs control” value was “significantly lower expression”.
